Here are results for twelve compounds from patent publication US6465663B2, “O- or S-substituted tetrahydronaphthalene derivatives having retinoid and/or retinoid antagonist-like biological activity” (Allergan, Inc., priority 1996, dated 2002).

SMILES strings stand for the structures.

For orientation: Kd means the concentration at which binding is half-saturated. A lower Kd goes with higher affinity.

One test addresses T1, RARα (Homo sapiens, UniProt P10276).
T1 sequence (P10276 1-462): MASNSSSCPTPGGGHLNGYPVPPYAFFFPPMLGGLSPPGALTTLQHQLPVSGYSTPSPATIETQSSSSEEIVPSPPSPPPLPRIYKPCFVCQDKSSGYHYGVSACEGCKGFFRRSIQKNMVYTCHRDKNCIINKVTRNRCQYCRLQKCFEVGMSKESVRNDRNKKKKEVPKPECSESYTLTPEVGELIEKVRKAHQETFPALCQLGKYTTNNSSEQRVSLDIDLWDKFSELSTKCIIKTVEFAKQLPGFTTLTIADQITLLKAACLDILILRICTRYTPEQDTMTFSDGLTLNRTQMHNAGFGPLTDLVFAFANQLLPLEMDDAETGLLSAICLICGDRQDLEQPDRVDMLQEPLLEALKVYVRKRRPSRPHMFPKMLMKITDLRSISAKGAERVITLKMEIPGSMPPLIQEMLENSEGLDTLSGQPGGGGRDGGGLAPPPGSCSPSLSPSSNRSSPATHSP
The test can be described thus: Ligand binding assay. The source says: (§1) Other assays described below, measure the ability of the compounds of the present invention to bind to, and/or activate various retinoid receptor subtypes. When in these assays a compound binds to a given receptor subtype and activates the transcription of a reporter gene through that subtype, then the compound is considered an agonist of that receptor subtype. […] In the below described assays the ability of the compounds to bind to RARα, RARβ, RARγ, RXRα, RXRβ and RXRΓ receptors, and the ability or inability of the compounds to activate transcription of a reporter gene through these receptor subtypes can be tested.
(§2) A holoreceptor transactivation assay and a ligand binding assay which measure the antagonist/agonist like activity of the compounds of the invention, or their ability to bind to the several retinoid receptor subtypes, respectively, are described in published PCT Application No. WO WO93/11755 (particularly on pages 30-33 and 37-41) published on Jun. 24, 1993, the specification of which is also incorporated herein by reference. A description of the holoreceptor transactivation assay is also provided below.
(§3) CV1 cells (5,000 cells/well) were transfected with an RAR reporter plasmid MTV-TREp-LUC (50 ng) along with one of the RAR expression vectors (10 ng) in an automated 96-well format by the calcium phosphate procedure of Heyman et al. Cell 68, 397-406, (1992). For RXRα and RXRγ transactivation assays, an RXR-responsive reporter plasmid CRBPII-tk-LUC (50 ng) along with the appropriate RXR expression vectors (10 ng) was used substantially as described by Heyman et al. above, and Allegretto et al. J. Biol. Chem. 268, 26625-26633. For RXRβ transactivation assays, an RXR-responsive reporter plasmid CPRE-tk-LUC ([…]) along with RXRβ expression vector ([…]) was used as described in above. These reporters contain DRI elements from human CRBPII and certain DRI elements from promoter, respectively. (see Mangelsdorf et al. The Retinoids: Biology, Chemistry and Medicine, pp 319-349, Raven Press Ltd., New York and Heyman et al., cited above) (1, 8). A β-galactosidase (50 ng) expression vector was used as an internal control in the transfections to normalize for variations in transfection efficiency. The cells were transfected in triplicate for 6 hours, followed by incubation with retinoids for 36 hours, and the extracts were assayed for luciferase and β-galactosidase activities. The detailed experimental procedure for holoreceptor transactivations has been described in Heyman et al. above, and Allegretto et al. cited above. The results obtained in this assay are expressed in EC50 numbers, as they are also in the chimeric receptor transactivation assay. The Heyman et al. Cell 68, 397-406, Allegretto et al. J. Biol. Chem. 268, 26625-26633, and Mangelsdorf et al. The Retinoids: Biology, Chemistry and Medicine, pp 319-349, Raven Press Ltd., New York, are expressly incorporated herein by reference. The results of ligand binding assay are expressed in Kd numbers. (See Cheng et al. Biochemical Pharmacology Vol. 22 pp 3099-3108, expressly incorporated herein by reference.)

The target of a further test is T2, RARβ (Homo sapiens, UniProt P10826).
T2 sequence (P10826 1-455): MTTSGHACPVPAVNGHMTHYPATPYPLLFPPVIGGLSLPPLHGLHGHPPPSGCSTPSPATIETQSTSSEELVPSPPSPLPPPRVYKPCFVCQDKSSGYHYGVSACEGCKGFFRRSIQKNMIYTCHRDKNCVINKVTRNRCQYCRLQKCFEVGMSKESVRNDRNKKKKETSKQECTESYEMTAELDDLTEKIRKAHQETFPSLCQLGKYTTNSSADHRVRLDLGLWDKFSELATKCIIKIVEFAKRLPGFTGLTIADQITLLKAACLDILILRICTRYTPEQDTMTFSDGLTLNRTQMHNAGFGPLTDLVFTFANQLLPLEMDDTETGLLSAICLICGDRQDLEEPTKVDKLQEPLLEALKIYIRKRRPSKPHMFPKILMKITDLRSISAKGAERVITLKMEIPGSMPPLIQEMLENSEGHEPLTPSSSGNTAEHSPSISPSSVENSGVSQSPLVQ
The test can be described thus: Ligand binding assay.
From the text: as §1, §2, §3

In a further test the target is T3, RARγ (Homo sapiens, UniProt P13631).
T3 sequence (P13631 1-454): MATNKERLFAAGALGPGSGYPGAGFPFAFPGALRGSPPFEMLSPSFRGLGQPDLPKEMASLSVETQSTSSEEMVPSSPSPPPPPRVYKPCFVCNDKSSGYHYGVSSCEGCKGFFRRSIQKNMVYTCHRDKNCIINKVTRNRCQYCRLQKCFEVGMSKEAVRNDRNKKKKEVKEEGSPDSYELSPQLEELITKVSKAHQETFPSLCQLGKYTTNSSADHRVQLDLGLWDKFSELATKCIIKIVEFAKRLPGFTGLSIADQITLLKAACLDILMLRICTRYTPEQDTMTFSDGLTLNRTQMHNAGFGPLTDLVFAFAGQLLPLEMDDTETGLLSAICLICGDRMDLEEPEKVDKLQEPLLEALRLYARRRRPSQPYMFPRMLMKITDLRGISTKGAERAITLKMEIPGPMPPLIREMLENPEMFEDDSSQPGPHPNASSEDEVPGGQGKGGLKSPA
The test can be described thus: Ligand binding assay.
From the text: as §1, §2, §3

Test [1] deals with ornithine decarboxylase (ODC). The test can be described thus: ODC assay: inhibition of TPA induction of ornithine decarboxylase activity. Type of test: in vivo. Conditions: concentration of the test compound which causes 80% inhibition in the ODC assay; cell marked (IC80). The source says: A classic measure of retinoic acid activity involves measuring the effects of retinoic acid on ornithine decarboxylase. […] That reference discloses that ornithine decarboxylase (ODC) activity increased precedent to polyamine biosynthesis. It has been established elsewhere that increases in polyamine synthesis can be correlated or associated with cellular proliferation. Thus, if ODC activity could be inhibited, cell hyperproliferation could be modulated. Although all cases for ODC activity increases are unknown, it is known that 12-0-tetradecanoylphorbol-13-acetate (TPA) induces ODC activity. Retinoic acid inhibits this induction of ODC activity by TPA.

In the case of `CCC(CC)=C1CCC(C)(C)c2ccc(/C=C/c3ccc(C(=O)O)cc3)cc21` [Compound A28, (E)-4-[2-(5,6-Dihydro-5,5-dimethyl-8(7H)-(pentyliden-3-yl)-naphthalen-2-yl)ethenyl]benzoic acid], the Kd on RARα was 0.004 µM; on RARβ it was 0.003 µM; on RARγ it was 0.042 µM.

In the case of `CC(C)=C1CCC(C)(C)c2ccc(C(=O)Nc3ccc(C(=O)O)cc3)cc21` [Compound E17], the dissociation constant (Kd) at RARα is 0.192 µM; at RARβ, 0.378 µM; at RARγ it was over 1 µM.

Consider `CC1(C)CCC2(SCCCS2)c2cc(/C=C/c3ccc(C(=O)O)cc3)ccc21` [Compound A24], for which the Kd worked out at 0.283 µM at RARα, 0.092 µM on RARβ and 0.259 µM on RARγ.

Regarding `CC1(C)CC=C(c2cccs2)c2ccc(C(=O)C=Cc3ccc(C(=O)O)cc3)cc21` [Compound D34, 4-[3-oxo-3-(7,8-dihydro-5-(2-thienyl)-8,8-dimethyl-2-naphthalenyl)-1-propenyl]-benzoic acid], the IC80 in test [1] is on record as 4.3 (IC80) nmols. Moreover, the figures for the Kd at RARα, at RARβ and on RARγ were 0.235 µM, 0.2 µM and 0.53 µM, respectively.

`CCO/N=C1\CCC(C)(C)c2ccc(/C(C)=C/C=C/C(C)=C/C(=O)O)cc21` [Compound C25, 7-[4,4-dimethyl-3,4-dihydro-1(2H)-anti-(O-ethyl oxime)-naphth-7-yl]3,7-dimethyl-hepta-2(E),4(E),6(E)-trienoic Acid]: the results for the Kd on RARα, on RARβ and at RARγ were 0.019 µM, 0.012 µM and 0.042 µM, respectively.

For `CC(C)=C1CCC(C)(C)c2ccc(C(=O)Oc3ccc(C(=O)O)cc3)cc21` [Compound E14], the Kd at RARα stood at 0.036 µM; at RARβ, 0.035 µM; on RARγ, 0.455 µM.

With `CC1(C)CCC(=O)c2cc(/C=C/c3ccc(C(=O)O)cc3)ccc21` [Compound A2a, (E)-4-[2-(5,6,7,8-tetrahydro-5,5-dimethyl-8-oxo-2-naphthalenyl)ethenyl]-benzoic acid], the Kd at RARα amounted to 0.15 µM; at RARβ, 0.219 µM; on RARγ, 0.421 µM.

`CC1(C)CCC(OC2CCCCO2)c2cc(C(=O)Oc3ccc(C(=O)O)cc3)ccc21` (single isomer, unassigned) [Compound E67, 4-[5,6,7,8-tetrahydro-8(S or R)-(2′(S or R)tetrahydropyranoxy)-5,5-dimethyl-2-napthoyloxy]benzoic Acid]: the dissociation constant Kd at RARα worked out at 0.077 µM; at RARβ, 0.302 µM; on RARγ, 0.375 µM.

Regarding `CCO/N=C1\CCC(C)(C)c2ccc(/C=C/c3ccc(C(=O)O)cc3)cc21` [Compound A6, (E)-4-[2-(5,5-Dimethyl-5,6,-dihydro-8(7H)-anti-(O-ethyl oxime)-naphthalen-2-yl)ethenyl]-benzoic acid], the Kd was 0.125 µM on RARα, 0.036 µM on RARβ and 0.127 µM on RARγ.

For the compound `CC1(C)CC=C(S(=O)(=O)c2ccccc2)c2cc(C(=O)Oc3ccc(C(=O)O)cc3)ccc21` [Compound E27], the Kd was 0.551 µM on RARα, 0.535 µM at RARβ and over 1 µM on RARγ.

As to `CC1(C)CC=C(Sc2ccccc2)c2cc(/C=C/c3ccc(C(=O)O)cc3)ccc21` [Compound A18, (E)-4-[2-(5,6-dihydro-5,5-dimethyl-8-(phenylthio)-naphthalen-2-yl)ethenyl] benzoic acid], the values for the Kd at RARα, on RARβ and at RARγ were 0.538 µM, 0.193 µM and 0.162 µM, respectively.

In the case of `COCOC1CCC(C)(C)c2ccc(N=Nc3ccc(C(=O)O)cc3)cc21` (racemic) [Compound D7, (+/−) 4-[(5,5-Dimethyl-8-(methoxymethyloxy)-5,6,7,8-tetrahydronaphthalen-2-yl)azo]benzoic Acid], the Kd was over 1 µM at RARα, 0.226 µM on RARβ and over 1 µM on RARγ.
